From patent US8691187B2, “Imaging agents for detecting neurological disorders” (Eli Lilly and Company, priority 2009, dated 2014) come the findings set out here.

As a reminder, the Kd is the free concentration of one partner at which half of the binding sites on the other are occupied at equilibrium, for simple one-to-one binding. By IC50 is commonly meant the concentration needed to halve the response being measured. For orientation: inhibition means the share of the control response that was lost under treatment. Read a low inhibition as little suppression.

In one data set the test system is tau aggregates. Briefly: Fluorescent compound staining on human AD brain sections (tau IHC double labeling). The data set is classed as binding. The conditions noted are these: Table 2 acetylenes; 100 uM compound; qualitative rating + to ++++ or words. The source says:
(§1) Native forms of tau (various isoforms, hyperphosphorylated) and amyloid aggregates are present in brain sections and therefore preferred for compound testing. Using the self-fluorescence of a test compound can give an indication of whether the compound binds to tau tangles/PHFs and/or amyloid plaques. This is further confirmed by immunostaining with Aβ and tau antibodies and overlaying the images. […] However, it is possible to “rate” the signal strength qualitatively and distinguish compounds that show binding to these aggregates.
(§2) In one of the embodiments of the present invention, the self-fluorescence of the compound of formula (I) is used to determine whether the compound binds to tau/amyloid in the brain sections and to give it a qualitative rating. The next step is to proceed to the autoradiography using different brain types for further evaluation and quantitation.
(§3) Tau fluorescent compounds staining on human brain sections (Double or triple labeled with tau and β-amyloid Immunohistochemistry (IHC))
(§4) Serial sections (6 μm thick) from OCT-embedded frozen blocks of front lobe were used for staining (OCT—optimal cutting temperature). After fixation and quenching of autofluorescence, tissue sections were incubated with in 100 μM of tau compound in 50% ethanol PBS for 60 min. Then sections were dipped briefly into water, rinsed in PBS, blocked with 5% normal horse serum in PBS for 1 hour at room temperature. After blocking, the tissue was incubated with tau or β-amyloid primary antibody at 4° C. overnight in a humid chamber. Next day, the sections were washed with PBS and then incubated with secondary antibody for 1 hour.

The subject of a further data set is AD brain sections. Briefly: Fluorescent compound staining on human AD brain sections (self-fluorescence, overall binding). The conditions noted are these: for binding of fluorescent compound to AD brain sections confirmed by immunostaining with tau or Aβ antibodies: figure legends, double labeling at 100 uM.
Description: as §1, §2, §3, §4

The next data set has as its target T1, Aβ plaques (Homo sapiens, UniProt P05067).
T1 construct: Native forms of tau (various isoforms, hyperphosphorylated) and amyloid aggregates are present in brain sections; from tissue; host or cells: human AD brain, frozen frontal lobe sections
Briefly: Fluorescent compound staining on human AD brain sections (β-amyloid IHC double labeling). The data set is classed as binding. The conditions noted are these: Table 3 benzimidazoles; 100 uM compound; qualitative rating 1+ to 4+ / + to +++.
Description: as §1, §2, §3, §4

The target in another data set is synthetic tau (Homo sapiens, UniProt P10636). Description: Synthetic tau Kd (F-18 labeled and cold compound, filtration). The data set is classed as binding. Here is the method: (§5) Pick one brain section for each type and air-dry in hood. A solution of diluted F-18 labeled tracer (40 μCi/mL, 500 μL) which was obtained from the dilution of F-18 tracer with 1×PBS containing 2.5% EtOH and 2.5% DMSO was applied onto each slides to cover the whole tissue section. The resulting slides were incubated at room temperature for 90 minutes, drained, and placed onto a slide holder. The slides were then washed sequentially with 1×PBS for 1 min; 70% EtOH in 1×PBS for 2 min; 30% EtOH in 1×PBS for 2 min; and 1×PBS for 1 min. The slides were dried in the hood for 30 min, and then placed on Fuji imaging plates and exposed overnight. The imaging plates were then scanned and the signal was measured using Fuji software to produce an autoradiography image of the brain section. (PBS—Phosphate Buffer Saline) Protocol for Synthetic Beta-amyloid and Tau Kds
Various concentrations solution of F-18 labeled and its parent cold compound in 1×PBS containing 5% Ethanol and 5% DMSO (pH 7.4) were incubated with synthetic beta-Amyloid or synthetic tau at room temperature in glass tubes for 90 min. The reaction mixture in each tube was filtered under vacuum through a microfiber filter. Each tube was washed with a solution of 20% EtOH in PBS. The PBS wash solution was filtered under vacuum through the filters. Each filter was then washed with a solution of 20% EtOH in PBS and then placed into a gamma counter vial for CPM counting. The data obtained was plotted for Kd determination.

A further data set relates to tau/Ab. Description: selectivity (tau/Ab). The format is binding.
Another data set relates to human AD brain slices. Description: Human AD brain section autoradiography with F-18 tracer. The conditions noted are these: for GM Intensity (comp. with W372): compared with W372; for Tx/tau/amyloid correlation: tracer signal vs tau and amyloid load. The format is binding.
Description: Furthermore, the selectivity can be evaluated in brains containing only Aβ plaques/no tau aggregates, Aβ plaques/and tau aggregates, and control brains. Unfortunately, there are no AD brains with only tau and no Aβ present. By testing radiolabeled tracers in these brain sections, one can more quantitative evaluate the relative binding strength (signal strength) and selectivity of various test compounds as they all contain the same radioactive tracer. For examples, if a test tracer binds only to tau, and not amyloid, it should show no signal in the Aβ plaques only brain sections. If a compound binds only to amyloid, it should show uptake in both types of brains. The difficulty of identifying and further quantifying selective compounds lies in the relative abundance of amyloid vs. tau, which is difficult to measure.
Human AD Brain Section Autoradiography
5 micron thick human AD brain slices were first examined using antibodies for Aβ and Tau to determine whether the tested human brain contains Aβ and Tau. Thus, three types of human brain slices were selected for autoradiography: Aβ+/Tau+; Aβ+/Tau−; and Aβ−/Tau−(control).
The experimental protocol is as follows:
as §5

The nature of data set [1]: Mouse and rat brain microPET imaging (brain uptake). The conditions noted are these: rats and mice. The format is in vivo. Here is the method:
Mouse and Rat Brain microPET Imaging
Wild type mice and rats were injected intravenously with the candidate tracers. Mice (weight range 25-45 g) were injected with doses between 180 and 300 μCi in 200 uL of saline solution. Rats (weight range 300-400 g) were injected with doses between 300 and 500 μCi of tracer in 400 μL of saline solution. Anesthesia was induced and maintained with Isoflurane. CT and PET scans were performed with a MM INVEON scanner (SIEMENS™). Acquisition for CT images preceded PET scanning and lasted 5 minutes. Only several minutes after the beginning of the PET acquisition, the radioactive dose was injected into the animal through the tail vein. Images were generated as dynamic scans that typically lasted 30 minutes. The initial image analysis consisted of determining whether there was uptake of the tracer in the brain which would establish its ability to cross the blood-brain barrier. All measurements were performed at the time point of 5 minutes following the injection of the tracer. The degree of uptake in the brain was estimated relative to the uptake of the traces in the region of neck muscles. The ratio between the percentage of injected dose per gram in the brain and that of the muscular neck region was provided as an estimate of brain uptake.

In another data set the test system is human hepatocytes. Briefly: Stability in human hepatocytes. The format is in vitro ADME.
In another data set the target is AchE (Homo sapiens, UniProt P22303). Briefly: AchE activity. The format is biochemical.
The target in a further data set is T2, MAO-A (Homo sapiens, UniProt P21397).
T2 sequence (P21397 1-527): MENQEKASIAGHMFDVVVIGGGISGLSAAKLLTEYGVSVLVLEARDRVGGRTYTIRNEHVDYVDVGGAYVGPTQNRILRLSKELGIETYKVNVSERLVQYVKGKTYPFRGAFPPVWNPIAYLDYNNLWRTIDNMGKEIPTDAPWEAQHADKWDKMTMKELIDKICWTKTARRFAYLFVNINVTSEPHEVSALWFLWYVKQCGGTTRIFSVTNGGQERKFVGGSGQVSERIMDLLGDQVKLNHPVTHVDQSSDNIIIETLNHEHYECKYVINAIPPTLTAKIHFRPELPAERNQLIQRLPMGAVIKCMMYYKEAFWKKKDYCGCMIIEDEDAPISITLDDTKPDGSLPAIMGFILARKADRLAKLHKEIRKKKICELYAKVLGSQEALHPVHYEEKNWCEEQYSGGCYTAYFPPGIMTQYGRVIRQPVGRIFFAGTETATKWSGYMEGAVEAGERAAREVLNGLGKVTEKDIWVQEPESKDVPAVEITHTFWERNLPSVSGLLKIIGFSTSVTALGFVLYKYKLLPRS
Briefly: MAO inhibition, MAO-A. The data set is classed as biochemical.

Another data set deals with T3, MAO-B (Homo sapiens, UniProt P27338).
T3 sequence (P27338 1-520): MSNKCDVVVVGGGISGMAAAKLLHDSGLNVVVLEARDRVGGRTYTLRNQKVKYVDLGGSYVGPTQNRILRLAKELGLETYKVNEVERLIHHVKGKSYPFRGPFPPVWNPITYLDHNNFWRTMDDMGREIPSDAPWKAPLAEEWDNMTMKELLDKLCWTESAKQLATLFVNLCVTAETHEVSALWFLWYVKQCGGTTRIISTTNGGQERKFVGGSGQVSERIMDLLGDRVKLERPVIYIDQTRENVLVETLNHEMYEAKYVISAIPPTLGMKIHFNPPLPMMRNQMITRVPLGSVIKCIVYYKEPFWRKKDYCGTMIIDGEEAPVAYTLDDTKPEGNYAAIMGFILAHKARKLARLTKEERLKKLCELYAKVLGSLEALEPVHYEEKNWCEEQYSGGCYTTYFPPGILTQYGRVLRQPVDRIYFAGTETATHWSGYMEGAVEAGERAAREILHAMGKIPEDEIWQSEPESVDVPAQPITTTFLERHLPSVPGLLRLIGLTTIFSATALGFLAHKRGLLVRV
Description: MAO inhibition, MAO-B. The data set is classed as biochemical.

The target in a further data set is T4, Bombesin BB3 (Homo sapiens, UniProt P32247).
T4 sequence (P32247 1-399): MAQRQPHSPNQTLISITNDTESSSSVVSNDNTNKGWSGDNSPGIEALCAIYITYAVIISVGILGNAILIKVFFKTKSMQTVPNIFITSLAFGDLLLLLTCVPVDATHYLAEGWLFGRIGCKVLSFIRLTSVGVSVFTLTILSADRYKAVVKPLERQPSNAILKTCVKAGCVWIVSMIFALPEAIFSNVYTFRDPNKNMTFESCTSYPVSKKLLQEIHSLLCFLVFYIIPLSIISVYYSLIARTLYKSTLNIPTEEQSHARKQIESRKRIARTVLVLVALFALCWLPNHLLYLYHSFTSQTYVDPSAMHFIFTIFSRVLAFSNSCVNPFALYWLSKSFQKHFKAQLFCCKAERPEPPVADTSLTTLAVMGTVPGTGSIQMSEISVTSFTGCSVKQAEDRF
Description: CNS selectivity panel, Bombesin BB3. The data set is classed as binding. The conditions noted are these: 10 uM (printed in T777 column).

In a further data set the test system is Monoamine transp. Description: CNS selectivity panel, monoamine transporter. The format is binding.
For the next data set, the target named is Norepinephrine transp. (Homo sapiens, UniProt P23975). Briefly: CNS selectivity panel, norepinephrine transporter. The data set is classed as binding.

The structures appear in SMILES notation.

Sequence of synthetic tau (P10636 whole entry): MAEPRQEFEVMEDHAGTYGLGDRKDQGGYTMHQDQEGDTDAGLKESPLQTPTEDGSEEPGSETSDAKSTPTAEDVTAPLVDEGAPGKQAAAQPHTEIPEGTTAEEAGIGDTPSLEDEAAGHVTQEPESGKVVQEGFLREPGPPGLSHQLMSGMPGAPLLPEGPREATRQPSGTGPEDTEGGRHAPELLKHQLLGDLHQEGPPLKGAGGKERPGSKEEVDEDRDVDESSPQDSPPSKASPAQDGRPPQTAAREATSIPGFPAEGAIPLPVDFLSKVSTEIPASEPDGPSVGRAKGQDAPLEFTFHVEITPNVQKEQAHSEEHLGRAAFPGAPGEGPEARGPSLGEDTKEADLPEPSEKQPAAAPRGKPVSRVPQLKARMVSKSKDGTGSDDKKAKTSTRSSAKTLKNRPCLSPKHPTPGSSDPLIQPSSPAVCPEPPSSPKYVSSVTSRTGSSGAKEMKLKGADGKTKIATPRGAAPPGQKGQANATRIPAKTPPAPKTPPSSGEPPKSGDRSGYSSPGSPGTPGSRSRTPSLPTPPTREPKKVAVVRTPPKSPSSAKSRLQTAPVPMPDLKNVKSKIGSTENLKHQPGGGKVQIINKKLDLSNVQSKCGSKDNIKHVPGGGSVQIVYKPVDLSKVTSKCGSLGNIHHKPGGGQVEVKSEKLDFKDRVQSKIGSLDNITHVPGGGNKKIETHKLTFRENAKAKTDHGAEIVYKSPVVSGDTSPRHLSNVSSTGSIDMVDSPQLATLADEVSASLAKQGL
Sequence of Norepinephrine transp. (P23975 whole entry): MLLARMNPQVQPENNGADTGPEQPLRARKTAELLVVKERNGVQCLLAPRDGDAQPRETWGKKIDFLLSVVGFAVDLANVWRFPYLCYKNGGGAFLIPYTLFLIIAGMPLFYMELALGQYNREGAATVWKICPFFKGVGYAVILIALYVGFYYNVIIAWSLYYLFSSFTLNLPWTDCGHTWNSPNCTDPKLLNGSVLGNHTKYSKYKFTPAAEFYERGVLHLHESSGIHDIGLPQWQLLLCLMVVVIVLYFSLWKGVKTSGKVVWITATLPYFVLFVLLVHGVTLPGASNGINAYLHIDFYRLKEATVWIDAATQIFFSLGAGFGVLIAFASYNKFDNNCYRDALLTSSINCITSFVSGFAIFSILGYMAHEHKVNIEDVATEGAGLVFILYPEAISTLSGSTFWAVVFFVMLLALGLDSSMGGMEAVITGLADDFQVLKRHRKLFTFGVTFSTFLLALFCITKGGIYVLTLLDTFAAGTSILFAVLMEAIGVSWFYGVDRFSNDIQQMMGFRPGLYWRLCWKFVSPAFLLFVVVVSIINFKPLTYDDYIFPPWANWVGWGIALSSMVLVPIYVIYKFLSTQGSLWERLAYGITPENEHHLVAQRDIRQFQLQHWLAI
Sequence of AchE (P22303 32-614): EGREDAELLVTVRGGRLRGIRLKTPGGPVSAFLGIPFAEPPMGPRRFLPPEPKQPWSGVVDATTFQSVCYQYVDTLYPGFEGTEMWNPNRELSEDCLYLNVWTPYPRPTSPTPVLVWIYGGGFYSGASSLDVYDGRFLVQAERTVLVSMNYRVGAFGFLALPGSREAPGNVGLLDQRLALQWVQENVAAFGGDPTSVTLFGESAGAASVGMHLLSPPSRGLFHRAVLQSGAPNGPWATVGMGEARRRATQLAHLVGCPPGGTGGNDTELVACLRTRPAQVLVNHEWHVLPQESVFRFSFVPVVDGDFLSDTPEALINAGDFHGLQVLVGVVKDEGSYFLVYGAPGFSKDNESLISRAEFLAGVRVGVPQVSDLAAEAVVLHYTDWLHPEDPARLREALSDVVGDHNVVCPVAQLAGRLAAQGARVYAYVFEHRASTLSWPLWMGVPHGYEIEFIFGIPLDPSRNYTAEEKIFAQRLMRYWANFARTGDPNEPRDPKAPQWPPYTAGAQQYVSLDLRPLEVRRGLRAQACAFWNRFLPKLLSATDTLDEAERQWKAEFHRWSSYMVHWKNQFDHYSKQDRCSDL
T1 sequence (P05067 672-713 limits assumed): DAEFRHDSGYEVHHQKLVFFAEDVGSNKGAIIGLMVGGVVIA

For the compound `CN(C)c1ccc(C#Cc2nc3ccccc3n2CCF)cc1` [Compound T482, 4-((1-(2-Fluoroethyl)-1H-benzo[d]imidazol-2-yl)ethynyl)-N,N-dimethylaniline], in the data set with tau aggregates, the “Brain Section Staining: tau” value is listed as “Mostly binds to Tau”. The “binding of fluorescent compound to AD brain sections confirmed by immunostaining with tau or Aβ antibodies” value in the data set with AD brain sections was “total tau binding”.
As to `CN(C)c1ccc(-c2ccc(-c3nc4ccccc4n3CCF)cc2)cc1` [Compound T543, 4′-(1-(2-Fluoroethyl)-1H-benzo[d]imidazol-2-yl)-N,N-dimethyl-[1,1′-biphenyl]-4-amine], the “Brain Section Staining: Aβ” value at Aβ plaques is listed as “no binding”. Also, the “binding of fluorescent compound to AD brain sections confirmed by immunostaining with tau or Aβ antibodies” value in the data set on AD brain sections is recorded as “binding”.
For the compound `CN1CCN(c2ccc(-c3cc(F)c4ccccc4n3)cc2)CC1` [Compound T559], the “Brain Section Staining: fluorescence” value with AD brain sections (Table 1 quinolines, 100 uM compound) is “No fluorescence”.
The compound `COc1ccc2nc3cc(-c4ccc(F)nc4)ccn3c2c1` [Compound T663, 3-(6-Fluoropyridin-3-yl)-8-methoxybenzo[4,5]imidazo[1,2-a]pyridine] showed a Kd at synthetic tau (Scheme 5 table) of 105 nM.
Consider `FC1CCN(c2ccn3c(n2)nc2ccccc23)CC1` [Compound T777, 2-(4-fluoropiperidin-1-yl)benzo[4,5]imidazo[1,2-a]pyrimidine], for which, at synthetic tau (Scheme 6 table), binding was put at a Kd of 19 nM. Further, in the data set on tau/Ab, the “selectivity (tau/Ab)” value was found to be 25×. Moreover, in the data set on human AD brain slices, the “GM Intensity (comp. with W372)” value came out at 9% and the Tx/tau/amyloid correlation result is listed as “yes”. The Brain uptake entry in data set [1] was “yes (4 rats, 4 mice)”. Also, in the data set with human hepatocytes, the “human hepatocytes (stability)” value is listed as “not stable (polar metabolites)”. This compound displayed an IC50 at AchE of 3000 nM. Moreover, 1 µM produced 9% inhibition against MAO-A. Further, the inhibition at 1 µM on MAO-B was 0%. Also, the “CNS selectivity panel: Bombesin BB3” value on Bombesin BB3 is reported as “Bombesin BB3 (49%)”. The “CNS selectivity panel: Monoamine transp.” value with Monoamine transp. (10 uM) is “transp. (49%)”. For the same compound, on Norepinephrine transp. (10 uM), the “CNS selectivity panel: Norepinephrine transp.” value is “transp. (42%)”.
`FCCC1CCN(c2ccn3c(n2)nc2ccccc23)CC1` [Compound T808, 2-(4-(2-fluoroethyl)piperidin-1-yl)benzo[4,5]imidazo[1,2-a]pyrimidine] showed an equilibrium dissociation constant (Kd) at synthetic tau (Scheme 6 table) of 22 nM. In addition, the “selectivity (tau/Ab)” value in the data set with tau/Ab is given as 27×. The “GM Intensity (comp. with W372)” value in the data set on human AD brain slices was determined as 18%. Besides, the Tx/tau/amyloid correlation entry in the data set on human AD brain slices is reported as “yes”. For the same compound, the Brain uptake entry in [1] is reported as “yes (4 rats, 5 mice)”. In addition, in the data set on human hepatocytes, the “human hepatocytes (stability)” value is recorded as “stable”. Besides, the IC50 turned out to be 3000 nM on AchE, 2700 nM in the data set on Monoamine transp. and 820 nM on Norepinephrine transp.. In addition, the inhibition at 1 µM against MAO-A turned out to be 22%; against MAO-B it was 29%. In addition, the “CNS selectivity panel: Bombesin BB3” value on Bombesin BB3 is “Bombesin BB3 (<20%)”.
